Assay results from ChEMBL document CHEMBL5260817, “Polyamine-based analogs and conjugates as antikinetoplastid agents” (Eur J Med Chem, 2017).
Values belong to the molecule of their own block, whether it stands above or below them.

Experiments:
Trypanosoma = assay: Inhibition of Trypanosomal TryS at 10 uM relative to control
Leishmania donovani [1] = assay: Antiprotozoal activity against Leishmania donovani MHOM/SD/00/1S-2D strain promastigotes assessed as parasitic death; type: functional, organism-based
Leishmania donovani [2] = assay: Antiprotozoal activity against Leishmania donovani MHOM/SD/00/1S-2D strain promastigotes assessed as parasitic death at 10 uM relative to control; type: functional
Trypanosoma cruzi [3] = assay: Antiprotozoal activity against Trypanosoma cruzi epimastigotes; type: functional, organism-based
Trypanosoma brucei [4] = assay: Antiprotozoal activity against Trypanosoma brucei; type: functional, organism-based
[5] = Inhibition of Trypanosoma brucei MetRS
[6] = Inhibition of TryR (unknown origin) assessed as inhibition constant; set-up: species or system Bacteria
[7] = system: Trypanosoma brucei rhodesiense; assay: Antiprotozoal activity against Trypanosoma brucei rhodesiense; type: functional, organism-based
Leishmania donovani [8] = assay: Antiprotozoal activity against Leishmania donovani PP75 strain […] assessed as […] at 10 ug/ml relative to control; type: functional; conditions: dose 10 µg/ml
Leishmania amazonensis [9] = assay: Antiprotozoal activity against Leishmania amazonensis PH8 strain […] assessed as […] at 10 ug/ml relative to control; type: functional; conditions: dose 10 µg/ml
Leishmania braziliensis = assay: Antiprotozoal activity against Leishmania braziliensis 2903 strain […] assessed as […] at 10 ug/ml relative to control; type: functional; conditions: dose 10 µg/ml
Trypanothione reductase [10] = molecular target: T1, Trypanothione reductase (Trypanosoma cruzi, UniProt P28593); assay: Inhibition of Trypanosoma cruzi TryR
T1 sequence (P28593 whole entry): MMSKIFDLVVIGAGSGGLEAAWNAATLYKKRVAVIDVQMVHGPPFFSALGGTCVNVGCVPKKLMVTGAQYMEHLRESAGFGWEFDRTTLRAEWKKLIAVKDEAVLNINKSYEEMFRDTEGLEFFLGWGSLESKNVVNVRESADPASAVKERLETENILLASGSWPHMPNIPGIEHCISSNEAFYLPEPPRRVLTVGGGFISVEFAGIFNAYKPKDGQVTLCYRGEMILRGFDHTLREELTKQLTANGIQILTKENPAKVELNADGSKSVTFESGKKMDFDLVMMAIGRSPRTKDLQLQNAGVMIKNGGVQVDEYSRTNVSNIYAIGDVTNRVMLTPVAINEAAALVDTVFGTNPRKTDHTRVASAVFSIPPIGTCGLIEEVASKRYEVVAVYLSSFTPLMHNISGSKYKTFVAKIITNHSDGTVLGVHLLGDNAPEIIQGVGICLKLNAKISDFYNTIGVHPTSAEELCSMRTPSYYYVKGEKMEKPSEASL

Trypanothione reductase [11] = molecular target: Trypanothione reductase (Trypanosoma brucei brucei, UniProt P39051); assay: Inhibition of Trypanosoma brucei TryR assessed as inhibition constant
Chain of Trypanothione reductase (Trypanosoma brucei brucei, UniProt P39051) (P39051 whole entry): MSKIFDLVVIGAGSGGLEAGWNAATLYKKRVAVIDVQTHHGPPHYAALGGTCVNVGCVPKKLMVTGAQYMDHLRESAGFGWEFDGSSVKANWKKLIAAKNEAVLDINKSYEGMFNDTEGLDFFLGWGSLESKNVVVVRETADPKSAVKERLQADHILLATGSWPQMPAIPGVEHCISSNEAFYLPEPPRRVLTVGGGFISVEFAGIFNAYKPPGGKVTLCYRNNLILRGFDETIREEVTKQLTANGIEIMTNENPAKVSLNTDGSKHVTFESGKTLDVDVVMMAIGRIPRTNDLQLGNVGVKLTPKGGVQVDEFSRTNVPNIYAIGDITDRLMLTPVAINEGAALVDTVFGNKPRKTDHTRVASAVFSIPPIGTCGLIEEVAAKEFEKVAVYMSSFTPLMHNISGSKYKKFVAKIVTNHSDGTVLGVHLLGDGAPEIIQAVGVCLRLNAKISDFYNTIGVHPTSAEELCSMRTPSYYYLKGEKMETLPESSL

Leishmania donovani [12] = assay: Antiprotozoal activity against Leishmania donovani promastigotes; type: functional, organism-based
Trypanothione reductase [13] = molecular target: T1, Trypanothione reductase; assay: Inhibition of Trypanosoma cruzi TryR assessed as inhibition constant
Leishmania chagasi = assay: Antiprotozoal activity against Leishmania chagasi measured after 3 days by MTT assay; type: functional, organism-based; conditions: 72 h
[14] = molecular target: Glutathione reductase, mitochondrial (Homo sapiens, UniProt P00390); assay: Inhibition of human glutathione reductase
Chain of Glutathione reductase, mitochondrial (P00390 whole entry): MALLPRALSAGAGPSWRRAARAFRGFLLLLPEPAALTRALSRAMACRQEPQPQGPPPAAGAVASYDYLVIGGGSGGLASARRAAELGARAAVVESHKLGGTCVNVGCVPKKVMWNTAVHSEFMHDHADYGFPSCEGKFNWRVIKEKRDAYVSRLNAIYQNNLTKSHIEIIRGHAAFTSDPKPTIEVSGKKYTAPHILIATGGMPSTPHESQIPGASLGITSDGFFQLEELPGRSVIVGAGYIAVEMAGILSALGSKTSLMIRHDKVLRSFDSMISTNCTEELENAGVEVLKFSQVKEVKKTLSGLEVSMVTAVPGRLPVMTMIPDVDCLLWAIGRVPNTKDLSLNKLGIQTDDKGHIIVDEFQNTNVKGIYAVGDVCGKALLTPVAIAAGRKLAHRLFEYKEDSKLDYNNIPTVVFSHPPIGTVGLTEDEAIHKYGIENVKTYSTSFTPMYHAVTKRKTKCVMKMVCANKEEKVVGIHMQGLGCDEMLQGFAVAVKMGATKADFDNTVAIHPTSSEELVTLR

Trypanosoma brucei [15] = assay: Trypanocidal activity against Trypanosoma brucei K 243 strain; type: functional, organism-based
Trypanosoma brucei [16] = assay: Trypanocidal activity against Trypanosoma brucei K 243-As-10-3 strain; type: functional, organism-based
Trypanosoma brucei [17] = assay: Trypanocidal activity against Trypanosoma brucei Lab 110 strain; type: functional, organism-based
Trypanosoma brucei [18] = assay: Trypanocidal activity against Trypanosoma brucei K 269 strain; type: functional, organism-based
Leishmania amazonensis [19] = assay: Antiprotozoal activity against Leishmania amazonensis measured after 3 days by MTT assay; type: functional, organism-based; conditions: 72 h
Bacteria = assay: Inhibition of TryR (unknown origin) at 10 uM relative to control
Trypanosoma cruzi [20] = assay: Antiprotozoal activity against Trypanosoma cruzi JEM strain epimastigotes; type: functional, organism-based
Trypanosoma cruzi [21] = assay: Antiprotozoal activity against Trypanosoma cruzi MG strain epimastigotes; type: functional, organism-based
Leishmania donovani [22] = assay: Antiprotozoal activity against Leishmania donovani; type: functional, organism-based
Trypanosoma cruzi [23] = assay: Antiprotozoal activity against Trypanosoma cruzi; type: functional, organism-based
Homo sapiens = organism: Homo sapiens; assay: Inhibition of Superoxide dismutase (unknown origin) at 100 uM measured after 24 hrs relative to control
Leishmania amazonensis [24] = assay: Antiprotozoal activity against Leishmania amazonensis promastigotes measured after 48 hrs by MTT assay; type: functional, organism-based

SMILES: NCCNC(=O)CN1C(=O)Cc2c([nH]c3ccc(Br)cc23)-c2ccccc21
inhibition (Trypanosoma): 80%

SMILES: COc1ccc2nc3cc(Cl)ccc3c(NCCCCN(CCCNc3c4ccc(Cl)cc4nc4ccc(OC)cc34)C(=O)[C@H](C)N)c2c1
IC50 (Leishmania donovani [1]): 1000 nM | inhibition at 10 µM (Leishmania donovani [2]): 90%

SMILES: O=C(NCCCCNCCCNC(=O)c1cnc2cc(C(F)(F)F)ccc2c1O)c1cnc2cc(C(F)(F)F)ccc2c1O
Ki [6]: 850 nM

SMILES: CCCCCCCCCCCCCCC(CN(CC)CC)NC(=O)OC(C)(C)C (stereo unspecified)
Activity (Leishmania donovani [8]): 80% | Activity (Leishmania amazonensis [9]): 80% | Activity (Leishmania braziliensis): 80%

SMILES: CN1CCN(CCCNC(=O)CCCCCC2=C(CCCCCC(=O)NCCCN3CCN(C)CC3)C(=O)c3c(N)cccc3C2=O)CC1
IC50 (Trypanothione reductase [10]): 800 nM

SMILES: c1ccc(CNCCCNCCCCNCCCNCc2ccccc2)cc1
Ki (Trypanothione reductase [11]): 19000 nM

SMILES: OCCn1c(CNCCCNc2nc3ccccc3[nH]2)cc2c(Cl)cc(Cl)cc21
IC50 [5]: < 25 nM | IC50 (Trypanosoma brucei [4]): 1 nM

SMILES: CCCNCCCCCCCCCNC(=O)[C@H](O)[C@H](O)[C@H](O)CO
IC50 (Leishmania chagasi): 2500 nM

SMILES: NCCCN(CCCCN(CCCN)CCCc1ccccc1)CCCc1ccccc1
IC50 (Trypanosoma brucei [15]): 500 nM | IC50 (Trypanosoma brucei [16]): 500 nM | IC50 (Trypanosoma brucei [17]): 500 nM | Ki (Trypanothione reductase [11]): 3000 nM | IC50 (Trypanosoma brucei [18]): 500 nM

SMILES: NCCCN(Cc1ccc(OCc2ccc(Br)cc2)cc1)Cc1ccc(OCc2ccc(Br)cc2)cc1
IC50 (Leishmania donovani [12]): < 1000 nM

SMILES: c1ccc(-c2cccc(CNCCCNCCCCCCCNCCCNCc3cccc(-c4ccccc4)c3)c2)cc1
IC50 (Trypanosoma brucei [4]): 1000 nM

SMILES: c1ccc(CCCNCCCNCCCCNCCCNCCCc2ccccc2)cc1
IC50 (Trypanosoma brucei [15]): 1000 nM | IC50 (Trypanosoma brucei [16]): 1000 nM | IC50 (Trypanosoma brucei [17]): 1000 nM | Ki (Trypanothione reductase [11]): 12000 nM | IC50 (Trypanosoma brucei [18]): 1000 nM

SMILES: NCCCCN(CCCN)Cc1ccc2ccccc2c1
Ki (Trypanothione reductase [13]): > 100000 nM

SMILES: c1ccc(CCCNCCCN(CCCCN(CCCNCCCc2ccccc2)CCCc2ccccc2)CCCc2ccccc2)cc1
IC50 (Trypanosoma brucei [15]): 100 nM | IC50 (Trypanosoma brucei [16]): 100 nM | IC50 (Trypanosoma brucei [17]): 100 nM | Ki (Trypanothione reductase [11]): 600 nM | IC50 (Trypanosoma brucei [18]): 100 nM

SMILES: CCCCCCCCCCCCNCCN
IC50 (Leishmania amazonensis [19]): 940 nM | IC50 (Leishmania chagasi): 200 nM

SMILES: CCCCCCCCCCCC(=O)NCCCCN
IC50 (Leishmania amazonensis [19]): 10000 nM | IC50 (Leishmania chagasi): 10000 nM

SMILES: c1ccc(CCCN(CCCCN(CCCc2ccccc2)CCCN(CCCc2ccccc2)CCCc2ccccc2)CCCN(CCCc2ccccc2)CCCc2ccccc2)cc1
IC50 (Trypanosoma brucei [15]): 20000 nM | IC50 (Trypanosoma brucei [16]): 20000 nM | IC50 (Trypanosoma brucei [17]): 20000 nM | IC50 (Trypanosoma brucei [18]): 20000 nM

SMILES: CCCCN(CCCC)CCCNC(=O)CCCCC1=C(C)C(=O)c2cccc(O)c2C1=O
IC50 [14]: > 40000 nM

SMILES: C(CCCNCCCNCC1CCCCCC1)CCCNCCCNCC1CCCCCC1
IC50 [7]: 160 nM

SMILES: O=C(NCCCCCCNC(=O)c1cccc(O)c1O)c1cccc(O)c1O
inhibition (Homo sapiens): 80%

SMILES: CC(C)=CCC/C(C)=C/CC/C(C)=C/CNCCCCN
IC50 (Leishmania amazonensis [24]): 15000 nM

More lines, main results first:

IC50 (Trypanosoma cruzi [3]): 14300 nM
SMILES: CCCCCCCCCCNCCCCCCN

IC50 (Trypanosoma brucei [4]): 190 nM
SMILES: c1ccc2cc(CNCCCCNCCCNCc3ccc4ccccc4c3)ccc2c1

IC50 (Trypanosoma brucei [4]): 0.4 nM
SMILES: Clc1cc(Cl)c2c(c1)[C@H](NCCCNc1nc3ncccc3[nH]1)CCN2
IC50 [5]: 2 nM

IC50 [7]: 1560 nM
SMILES: CN1CCN(CCC(=N)Nc2cc(Cl)ccc2Sc2ccccc2)CC1

IC50 (Trypanothione reductase [10]): 200 nM
SMILES: CCCCCCCCCCCCCC(=O)NCCCC(=O)N(CC(=O)Nc1cccc(Sc2ccc(Br)cc2NC(=O)CCN2CCN(C)CC2)c1)C(=O)Nc1ccccc1Sc1ccc(Br)cc1NC(=O)CCN1CCN(C)CC1

IC50 (Leishmania donovani [12]): < 1000 nM
SMILES: COc1cc(CN(CCCN)Cc2ccc(OCc3ccccc3)c(OC)c2)ccc1OCc1ccccc1

Ki (Trypanothione reductase [13]): 2000 nM
SMILES: CCCNCCCNC(=O)CNC(=O)[C@H](CCCC[C@H](NC(=O)OCC1c2ccccc2-c2ccccc21)C(=O)NCC(=O)NCCCNCCC)NC(=O)OCC1c2ccccc2-c2ccccc21

IC50 (Trypanosoma brucei [4]): 4 nM
SMILES: Fc1ccc2[nH]c(NCCCNCc3cc(Cl)cc(Cl)c3)nc2n1
IC50 [5]: 1 nM

IC50 [14]: > 40000 nM
SMILES: CCCCN(CCCC)CCCNC(=O)CCCCC1=C(C)C(=O)c2ccccc2C1=O

IC50 (Trypanosoma brucei [4]): 4 nM
SMILES: Clc1cc(Cl)cc(CNCCCNc2nc3ncccc3[nH]2)c1
IC50 [5]: 1 nM

IC50 (Trypanothione reductase [10]): 600 nM
SMILES: CCCCN(CCCC)CCCNC(=O)CCCC1=C(CCCC(=O)NCCCN(CCCC)CCCC)C(=O)c2c(O)cccc2C1=O

Ki (Trypanothione reductase [13]): 37000 nM
SMILES: NCCCNCCCCNCCCNCCCc1ccccc1

inhibition (Bacteria): 95%
SMILES: O=C(Cc1c[nH]c2ccccc12)NCCCCNCCCNC(=O)Cc1c[nH]c2ccccc12

IC50 (Trypanosoma cruzi [20]): > 19000 nM | IC50 (Trypanosoma cruzi [21]): > 19000 nM
SMILES: CCCCCCCCCCCCCCC(N)CN (stereo unspecified)

IC50 [7]: > 40000 nM | IC50 (Leishmania donovani [22]): > 40000 nM | IC50 (Trypanosoma cruzi [23]): > 40000 nM
SMILES: NCCCCNCCCNC(=O)C(=O)c1c[nH]c2ccccc12

IC50 [7]: > 40000 nM | IC50 (Leishmania donovani [22]): > 40000 nM | IC50 (Trypanosoma cruzi [23]): > 40000 nM
SMILES: NCCCCNCCCNC(=O)C(=O)c1c[nH]c2cc(Br)ccc12
